Source: PubChem BioAssay (NCI)
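Following 48 hours of exposure in 96-well plates, responses at five concentrations were used to interpolate endpoints linearly. GI50 is the concentration that inhibits growth by half. The concentration for full growth arrest is given as TGI.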

What was measured:
Assay in all cases: NCI anticancer screen, dose series, 48 h
[1] = test system: EKVX NSCLC
[2] = test system: HCT-15 colon
[3] = test system: HOP-62 NSCLC
[4] = test system: OVCAR-3 ovarian
[5] = test system: SF-295 CNS
[6] = test system: SF-539 CNS
[7] = test system: SK-OV-3 ovarian
[8] = test system: UACC-257 melanoma
[9] = test system: UO-31 renal
[10] = test system: HT29 colon

SMILES	TGI [1]	TGI [2]	TGI [3]	TGI [4]	TGI [5]	TGI [6]	TGI [7]	TGI [8]	TGI [9]	TGI [10]	GI50 [1]	GI50 [2]	GI50 [3]	GI50 [4]	GI50 [5]	GI50 [6]	GI50 [7]	GI50 [8]	GI50 [9]	GI50 [10]
COc1ccc2nc3cc(Cl)ccc3c(Sc3ccc([N+](=O)[O-])cc3C)c2c1	> 100 µM	> 100 µM	> 100 µM	> 100 µM	> 100 µM	> 100 µM	> 100 µM	> 100 µM	> 100 µM											
C[C@]12CC=CC(=O)[C@@]1(C)CCC(=O)C2	> 100 µM		> 100 µM	> 100 µM	> 100 µM	> 100 µM	> 100 µM	> 100 µM	> 100 µM	> 100 µM										
COc1cc(NCC(C#N)C#N)ccc1N=Nc1ccc(Cl)cc1	68.5 µM	47.4 µM	36.4 µM	38.4 µM	51.3 µM	51.6 µM	83.8 µM		52.5 µM	30.5 µM										
CN(C)CCOc1ccc([N+](=O)[O-])c2cccnc12		> 100 µM	> 100 µM	> 100 µM	> 100 µM	> 100 µM	> 100 µM	> 100 µM	> 100 µM	> 100 µM										
C=C(C)[C@@H]1CC[C@]2(COCCCN)CC[C@]3(C)[C@H](CC[C@@H]4[C@@](C)(CCCNCCCN)[C@H](C(=C)C)CC[C@]43C)[C@@H]12	3.21 µM	2.63 µM	3.25 µM	3.36 µM	3.83 µM	3.21 µM	4.9 µM	3.67 µM	2.77 µM		1710 nM	1300 nM	1.66 µM	1810 nM	1940 nM	1760 nM	2230 nM	1880 nM	1430 nM	
COC(=O)C(=O)CC(=O)CCn1[nH]c(=O)c(Cl)c(Cl)c1=O	> 100 µM	> 100 µM	> 100 µM	> 100 µM	> 100 µM	> 100 µM		> 100 µM	> 100 µM	> 100 µM										
CC(=O)Oc1cc2c(cc1OC(C)=O)C1(C)CCC2(C)c2cc(OC(C)=O)c(OC(C)=O)cc21	> 100 µM	85.3 µM	58.2 µM	29.7 µM	58.8 µM		72.5 µM	40.4 µM	89.1 µM	> 100 µM										
Cc1cn(C2CC(OC(=O)c3ccc(Cl)cc3)C(COC(=O)c3ccc(Cl)cc3)O2)c(=O)[nH]c1=O (configuration not stated)	> 100 µM	> 100 µM	> 100 µM	> 100 µM	> 100 µM		> 100 µM	> 100 µM	> 100 µM	> 100 µM										
O=C1C=C(Nc2ccccc2C(=O)CC(=O)C(=O)Nc2cccc([N+](=O)[O-])c2)c2ccccc2C1=O	> 100 µM	> 100 µM	> 100 µM	55.2 µM		> 100 µM	> 100 µM	78.5 µM	> 100 µM	> 100 µM										
C=C(C)C1CC2(C)C(C)CC(O)CC2C(OC(=O)C=C(C)C)C1O (configuration not stated)	> 100 µM	> 100 µM			84.3 µM	> 100 µM	> 100 µM	> 100 µM	74.4 µM	69.8 µM										
CC(=O)c1ccc(NC(=O)/C(CC(=O)c2sc(-c3cccnc3)nc2C)=N/NC(N)=O)cc1		> 100 µM		> 100 µM	> 100 µM		> 100 µM		> 100 µM	> 100 µM										
CN(C)C/C=C/C(=O)Nc1ccc(C(=O)N[C@@]2(C)CCC[C@@H](Nc3ncc(Cl)c(-c4c[nH]c5ccccc45)n3)C2)nc1	0.564 µM	1.05 µM			1.1 µM	0.0929 µM	1.23 µM	0.121 µM	0.718 µM	1.09 µM	< 10 nM	28.6 nM			12.6 nM	19.5 nM	101 nM	< 10 nM	55.7 nM	< 10 nM
CCCC1(CC(=O)O)OCCc2c1[nH]c1ccccc21 (configuration not stated)	> 100 µM	> 100 µM	> 100 µM	> 100 µM	> 100 µM	> 100 µM	> 100 µM	> 100 µM	> 100 µM											
N#CCC(=O)N/N=C1/C(=O)N(c2ccc(Cl)cc2)C(=O)C(=O)C1c1nc2ccccc2s1 (configuration not stated)	> 100 µM	> 100 µM	> 100 µM	> 100 µM	> 100 µM		> 100 µM	> 100 µM	> 100 µM	> 100 µM										
CCN(CC)CCNC(Cc1ccccc1)c1ccc(OCc2ccccc2)cc1 (configuration not stated)		13 µM	21.7 µM	25.8 µM	4.57 µM	18.6 µM	23.6 µM	4.85 µM	14.7 µM	11.8 µM		3360 nM	8.49 µM	11800 nM	2040 nM	5260 nM	10900 nM	2130 nM	2530 nM	2440 nM
O=C(Nc1ccc(Cl)cc1)C1C(=O)C(=O)N(c2ccc(Cl)cc2)C1=O (configuration not stated)	> 100 µM	> 100 µM		> 100 µM	> 100 µM	> 100 µM	> 100 µM		> 100 µM	> 100 µM										
CCCCCCCCCCCC(=O)OCCOCCOCCOCCOCCOC(=O)CCCCCCCCCCC	> 100 µM	> 100 µM	> 100 µM	> 100 µM	> 100 µM		> 100 µM	> 100 µM	> 100 µM	> 100 µM										
CCN1C(=O)/C(=C/c2c(Cl)[nH]c3cc(C)c(OC)cc23)c2ccccc21	80.4 µM	> 100 µM	30.8 µM	8.37 µM	40.6 µM	0.52 µM		> 100 µM	> 100 µM	> 100 µM	7580 nM	4190 nM	5.6 µM	2600 nM	1490 nM	251 nM		6470 nM	2870 nM	1550 nM
C=CC[P@]1(=O)O[C@H](c2ccccc2)[C@H](C)N1C	> 100 µM	> 100 µM		> 100 µM	> 100 µM	> 100 µM	> 100 µM		> 100 µM	> 100 µM										
CCN1C(=O)c2ccc3c4c(ccc(c24)C1=O)C(=O)N(CCCNCc1ccccc1OC)C3=O		1.07 µM	2.78 µM	1.04 µM	1.37 µM	2.47 µM	7.04 µM	0.88 µM	3.58 µM	3.67 µM		291 nM	0.925 µM	335 nM	377 nM	1160 nM	2280 nM	264 nM	1390 nM	404 nM
